Experimental data taken from US7084158B2, “Substituted propargylamines” (Bayer Cropscience S.A., priority 2001, dated 2006).

Assays:
Assay type in all cases: in vivo
Parameters in all cases: key: compounds were considered to be active when, at a concentration of 500 ppm or less, they had an activity on the harmful organisms of 50% or more
Plutella maculipennis [1] = test: Example W: cabbage plant, root-systemic activity on diamondback moth larvae; settings: 500 ppm or less; cabbage plant in treated water, populated after one week; after 3 days
Method: 2.4 ml of an aqueous solution of the formulated compound to be examined were pipetted into a bottle filled with 21.6 ml of water. A 14-day-old cabbage plant was transferred into the bottle. After one week, the plant was populated with 5 larvae of the diamondback moth (Plutella maculipennis). Plants and animals were then stored in a climatized chamber (23° C., 40–60% relative atmospheric humidity). After 3 days of storage, the root-systemic activity of the compound on the larvae was determined (mortality). The following examples were active: 1036, 70, 60.

Plutella maculipennis [2] = test: Example P: dipped cabbage leaf, diamondback moth larvae; settings: 500 ppm or less, after 3 days
Method: A cabbage leaf was dipped for about 5 seconds into an aqueous solution of the formulated compound to be examined. After drying, the cabbage leaf treated in this manner was transferred into a container and populated with 10 larvae of the diamondback moth (Plutella maculipennis). The container was then closed with a lid. After 3 days of storage at about 23° C., the effect of the compound on the larvae was determined. The following examples were active: 1036, 70, 60, 209.

Heliothis virescens [3] = test: Example V: dipped freeze-dried diet cube, tobacco budworm L2 larvae mortality; settings: 500 ppm or less, after 4 days
Method: Insect diet (as freeze-dried cube) was dipped into an aqueous solution of the formulated compound to be examined and then placed into a Petri dish. 10 L2 larvae of the American tobacco budworm (Heliothis virescens) were then added. The Petri dish was then closed with a lid. After 4 days of storage at about 23° C., the mortality among the larvae was determined. The following examples were active: 1036, 60.

Heliothis virescens [4] = test: Example AH: sprayed cotton leaves, antifeeding activity on tobacco budworm larvae; settings: 500 ppm or less, L2 larvae, after 2, 3 and 4 days
Method: Cotton leaves were placed into a Petri dish, sprayed with an aqueous solution of the formulated compound to be examined and, after drying, populated with 5 L2 larvae of the American tobacco budworm (Heliothis virescens). After 2, 3 and 4 days of storage at about 25° C., the antifeeding activity of the compound on the larvae was determined. The following examples were active: 1036, 70, 60.

[5] = tested on: Diabrotica undecimpunctata; test: Example AC: treated soil, southern corn rootworm eggs mortality; settings: 500 ppm or less, eggs added after 0d, 21d and 42d, after 2 weeks
Method: An aqueous solution of the formulated compound to be examined was mixed with soil. After 0d, 21d and 42d, eggs of the southern corn rootworm (Diabrotica undecimpunctata) were placed together with 2 pre-swollen maize corns into a dish, covered with the treated soil and moisted with 10 ml of water. Soil and eggs were placed in a greenhouse (23° C., 60% relative atmosphere humidity). After 2 weeks of storage, the effect of the compound on the eggs and any larvae hatched therefrom was determined (mortality). The following examples were active: 70, 60, 197, 204.

Ctenocephalides felis = test: Example M: cat fleas fed with treated cattle blood, mortality; settings: 500 ppm or less; adult fleas fed blood-preparation mixture; after 48 hours
Method: The formulated compound was mixed with defibrinated cattle blood. 10 adult cat fleas (Ctenocephalides felis) were fed with this blood-preparation mixture. After 48 hours at about 38° C., the effect of the compound on the fleas was determined (mortality). The compounds of the following examples were active: 70, 1002, 1004, 1005, 1036, 60, 197, 1057.

CC1CCN(CC#Cc2cc(C(F)(F)F)cc(C(F)(F)F)n2)CC1 [Example 60]
active: root-systemic activity on the larvae (mortality) (Plutella maculipennis [1]) | effect on the larvae (Plutella maculipennis [2]) | mortality among the larvae (Heliothis virescens [3]) | antifeeding activity on the larvae (Heliothis virescens [4]) | effect on the eggs and hatched larvae (mortality) [5] | effect on the fleas (mortality) (Ctenocephalides felis)
